# From patent publication US9351974B2, “Substituted pteridinones for the treatment of cancer” (OSI Pharmaceuticals, LLC, priority 2011, dated 2016)
# Target: T1, His-tagged full-length RSK2 (RPS6KA3) (Homo sapiens, UniProt P51812)
# T1 construct: His-tagged full-length RSK2 (RPS6KA3, Invitrogen PV3323); His; purchased Invitrogen PV3323
# Assay: RSK2 Omnia Assay for compound IC50 determination
# Type: biochemical
# Details: ATP 15 μM, n=2, read-out: Mean RSK2 Biochem IC50
# Description: RSK1 & RSK2 Omnia Assay Protocol for Compound IC50 Determination
# The Omnia Assay (Invitrogen) has been optimized for His-tagged full length RSK1 (RPS6KA1, Millipore 14-509) and for His-tagged full-length RSK2 (RPS6KA3, Invitrogen PV3323). In this assay system, Omnia ST Peptide 6 (Invitrogen KNZ1061) functions as a substrate for RSK1 or RSK2. Phosphorylation of this SOX-containing peptide results in an increase in fluorescence at 485 nm upon excitation at 360 nm.
# Assays are carried out in 384-well OptiPlates (Perkin Elmer 6007290) in a total volume of 20 μL containing RSK1 ([…]) or RSK2 ([…]), Omnia ST Peptide 6 (5 μM), ATP (15 μM, Km=16.3 μM), and test compound (variable) in RSK assay buffer (50 mM HEPES, pH 7.5, 10 mM MgCl2, 0.01% Tween-20, 1% glycerol, 1 mM DTT, 1 mM EGTA, 0.01% BSA) with 1% DMSO.
# IC50s for test compounds are typically determined using an 11-point three-fold serial dilution with a final assay concentration ranging either from 170 μM to […] or from 17 μM to […]. All compound concentrations are assayed in duplicate. Initial compound dilutions are prepared at 100× concentration in 100% DMSO from a 10 mM stock solution. Compounds are further diluted 1:25 in assay buffer resulting in a 4× concentrated solution.
# To run the assay 5 μL of the above 4× concentrated compound solution (or 4% DMSO for positive controls) is added to the assay plate followed by 5 μL of a solution containing peptide (20 μM) and ATP (60 μM) in assay buffer. The reaction is initiated by the addition of 10 μL of RSK1 ([…]) or RSK2 ([…]) in assay buffer, or assay buffer alone for negative controls. The increase in fluorescence due to peptide phosphorylation is monitored continuously as a function of time using a Spectramax M5 plate reader (Molecular Devices) equipped with SoftMax Pro software.
# The slopes from the linear portion of progress curves are used to determine IC50 values by non-linear curve-fitting to a four-parameter equation using GraphPad Prism (GraphPad Software, Inc.) or XLFit (IDBS). IC50's are determined in duplicate (n=2) and Ki values are calculated from IC50 values using the Cheng-Prusoff equation assuming a competitive mode of inhibition.
# T1 sequence (P51812 whole entry): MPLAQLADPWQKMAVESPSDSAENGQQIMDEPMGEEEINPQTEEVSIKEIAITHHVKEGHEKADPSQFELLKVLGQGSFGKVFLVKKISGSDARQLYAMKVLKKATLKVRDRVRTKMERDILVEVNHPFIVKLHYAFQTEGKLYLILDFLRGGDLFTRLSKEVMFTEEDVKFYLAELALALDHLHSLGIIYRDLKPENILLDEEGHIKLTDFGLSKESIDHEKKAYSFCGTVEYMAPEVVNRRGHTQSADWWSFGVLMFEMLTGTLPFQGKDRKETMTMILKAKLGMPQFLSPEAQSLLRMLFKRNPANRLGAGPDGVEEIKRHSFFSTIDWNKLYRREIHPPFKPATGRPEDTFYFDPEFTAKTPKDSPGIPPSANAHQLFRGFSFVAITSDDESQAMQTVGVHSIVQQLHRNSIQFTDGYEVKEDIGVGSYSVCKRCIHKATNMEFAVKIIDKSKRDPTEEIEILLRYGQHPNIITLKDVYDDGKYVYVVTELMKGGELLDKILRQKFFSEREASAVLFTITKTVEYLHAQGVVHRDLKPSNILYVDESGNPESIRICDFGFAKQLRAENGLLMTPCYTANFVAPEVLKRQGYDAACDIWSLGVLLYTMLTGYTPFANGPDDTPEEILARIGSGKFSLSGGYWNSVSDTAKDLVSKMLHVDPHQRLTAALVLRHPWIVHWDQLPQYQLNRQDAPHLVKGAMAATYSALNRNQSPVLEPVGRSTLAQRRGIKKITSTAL
row,SMILES,IC50 [nM]
1,"C[C@@H]1C(=O)N(c2ccc(N(C)C)cc2)c2cnc(Nc3ccc4[nH]ncc4c3)nc2N1C1CCCCC1 [Example 41, (7R)-8-cyclohexyl-5-[4-(dimethylamino)phenyl]-2-(1H-indazol-5-ylamino)-7-methyl-7,8-dihydropteridin-6(5H)-one]",≤ 100
2,"C[C@@H]1C(=O)N(c2ccc(C(=O)N(C)C)cc2)c2cnc(Nc3ccc4[nH]ncc4c3)nc2N1C1CCCCC1 [Example 27, 4-[(7R)-8-cyclohexyl-2-(1H-indazol-5-ylamino)-7-methyl-6-oxo-7,8-dihydropteridin-5(6H)-yl]-N,N-dimethylbenzamide]",≤ 100
3,"C[C@@H]1C(=O)N(c2ccc(N3CCOCC3)nc2)c2cnc(Nc3cc(F)c4[nH]ncc4c3)nc2N1C1CCC(C)(C)CC1 [Example 213, (7R)-8-(4,4-dimethylcyclohexyl)-2-[(7-fluoro-1H-indazol-5-yl)amino]-7-methyl-5-[6-(morpholin-4-yl)pyridin-3-yl]-7,8-dihydropteridin-6(5H)-one]",≤ 100
4,"C[C@@H]1C(=O)N(c2ccc(N3CCCC3)nc2)c2cnc(Nc3cc(F)c4[nH]ncc4c3)nc2N1C1CCCCC1 [compound 141, (7R)-8-cyclohexyl-2-[(7-fluoro-1H-indazol-5-yl)amino]-7-methyl-5-[6-(pyrrolidin-1-yl)pyridin-3-yl]-7,8-dihydropteridin-6(5H)-one]",≤ 100
5,"COC(=O)c1cccc(Nc2ncc3c(n2)N(CCC(C)C)C(C)C(=O)N3c2ccccc2)c1 (stereo not drawn) [Example 10, methyl 3-{[7-methyl-8-(3-methylbutyl)-6-oxo-5-phenyl-5,6,7,8-tetrahydropteridin-2-yl]amino}benzoate]",> 1000
6,"COc1ccc(N2C(=O)[C@@H](C)N(C3CCCCC3)c3nc(Nc4cc(F)c5[nH]ncc5c4)ncc32)cn1 [compound 138, (7R)-8-cyclohexyl-2-[(7-fluoro-1H-indazol-5-yl)amino]-5-(6-methoxypyridin-3-yl)-7-methyl-7,8-dihydropteridin-6(5H)-one]",≤ 100
7,"CC(C)CCN1c2nc(Nc3ccc4[nH]ncc4c3)ncc2N(c2ccccc2)C(=O)C1C (stereo not drawn) [Example 1, 2-(1H-indazol-5-ylamino)-7-methyl-8-(3-methylbutyl)-5-phenyl-7,8-dihydropteridin-6(5H)-one]",≤ 100
8,"CC(C)CCN1c2nc(Nc3cc(F)c(O)c(F)c3)ncc2N(c2ccccc2)C(=O)C1C (stereo not drawn) [Example 2, 2-[(3,5-difluoro-4-hydroxyphenyl)amino]-7-methyl-8-(3-methylbutyl)-5-phenyl-7,8-dihydropteridin-6(5H)-one]",≤ 100
9,"CC[C@@H]1C(=O)N(c2ccc(N3CCOCC3)nc2)c2cnc(Nc3cc(F)c4[nH]ncc4c3)nc2N1C1CCCCC1 [compound 292, (7R)-8-cyclohexyl-7-ethyl-2-[(7-fluoro-1H-indazol-5-yl)amino]-5-[6-(morpholin-4-yl)pyridin-3-yl]-7,8-dihydropteridin-6(5H)-one]",≤ 100

# The next lines start with the values.
row,IC50 [nM],SMILES
1,≤ 100,"C[C@@H]1C(=O)N(c2cccc(C#N)c2)c2cnc(Nc3cc(F)c(O)c(F)c3)nc2N1C1CCCCC1 [compound 158, 3-[(7R)-8-cyclohexyl-2-[(3,5-difluoro-4-hydroxyphenyl)amino]-7-methyl-6-oxo-7,8-dihydropteridin-5(6H)-yl]benzonitrile]"
2,100 to 1000,"COc1cc(Nc2ncc3c(n2)N(C2CCCCC2)[C@H](C)C(=O)N3c2cccc(C#N)c2)cc2cn[nH]c12 [compound 123, 3-[(7R)-8-cyclohexyl-2-[(7-methoxy-1H-indazol-5-yl)amino]-7-methyl-6-oxo-7,8-dihydropteridin-5(6H)-yl]benzonitrile]"
3,≤ 100,"CCOc1ccc(N2C(=O)[C@@H](C)N([C@H]3CC[C@H](C)CC3)c3nc(Nc4ccc5[nH]c(=O)oc5c4)ncc32)cc1C#N [compound 247, 2-Ethoxy-5-[(7R)-7-methyl-8-(trans-4-methylcyclohexyl)-6-oxo-2-[(2-oxo-2,3-dihydro-1,3-benzoxazol-6-yl)amino]-7,8-dihydropteridin-5(6H)-yl]benzonitrile]"
4,≤ 100,"COc1ccc(N2C(=O)[C@@H](C)N(C3CCCCC3)c3nc(Nc4cnc5[nH]ncc5c4)ncc32)cc1C#N [compound 164, 5-[(7R)-8-cyclohexyl-7-methyl-6-oxo-2-(1H-pyrazolo[3,4-b]pyridin-5-ylamino)-7,8-dihydropteridin-5(6H)-yl]-2-methoxybenzonitrile]"
5,≤ 100,"C[C@@H]1C(=O)N(c2cccc(C#N)c2)c2cnc(Nc3ccc(C(=O)O)c(F)c3)nc2N1C1CCC(F)(F)CC1 [compound 271, 4-{[(7R)-5-(3-cyanophenyl)-8-(4,4-difluorocyclohexyl)-7-methyl-6-oxo-5,6,7,8-tetrahydropteridin-2-yl]amino}-2-fluorobenzoic acid]"
6,≤ 100,"C[C@@H]1C(=O)N(c2cccc(C#N)c2)c2cnc(Nc3cc(F)c4[nH]ncc4c3)nc2N1[C@H]1CC[C@@H](C)CC1 [compound 236, 3-[(7R)-2-[(7-fluoro-1H-indazol-5-yl)amino]-7-methyl-8-(cis-4-methylcyclohexyl)-6-oxo-7,8-dihydropteridin-5(6H)-yl]benzonitrile]"
7,≤ 100,"COc1ccc(N2C(=O)[C@@H](C)N(C3CCOCC3)c3nc(Nc4cc(F)c5[nH]ncc5c4)ncc32)cc1C#N [compound 190, 5-[(7R)-2-[(7-fluoro-1H-indazol-5-yl)amino]-7-methyl-6-oxo-8-(tetrahydro-2H-pyran-4-yl)-7,8-dihydropteridin-5(6H)-yl]-2-methoxybenzonitrile]"
8,≤ 100,"C[C@@H]1C(=O)N(c2cccc(C#N)c2)c2cnc(Nc3cc(F)c4[nH]ncc4c3)nc2N1C1CCCCC1 [compound 106, 3-[(7R)-8-cyclohexyl-2-[(7-fluoro-1H-indazol-5-yl)amino]-7-methyl-6-oxo-7,8-dihydropteridin-5(6H)-yl]benzonitrile]"
9,≤ 100,"COc1ccc(N2C(=O)[C@@H](C)N(C3CCCCC3)c3nc(Nc4ccc5[nH]c(=O)oc5c4)ncc32)cc1C#N [compound 165, 5-[(7R)-8-cyclohexyl-7-methyl-6-oxo-2-[(2-oxo-2,3-dihydro-1,3-benzoxazol-6-yl)amino]-7,8-dihydropteridin-5(6H)-yl]-2-methoxybenzonitrile]"
10,≤ 100,"CCOc1ccc(N2C(=O)[C@@H](C)N(C3CCC(F)(F)CC3)c3nc(Nc4cc(F)c5[nH]c(=O)oc5c4)ncc32)cc1C#N [compound 280, 5-[(7R)-8-(4,4-difluorocyclohexyl)-2-[(4-fluoro-2-oxo-2,3-dihydro-1,3-benzoxazol-6-yl)amino]-7-methyl-6-oxo-7,8-dihydropteridin-5(6H)-yl]-2-ethoxybenzonitrile]"
11,≤ 100,"CO[C@H]1CC[C@@H](N2c3nc(Nc4ccc5[nH]c(=O)oc5c4)ncc3N(c3cccc(C#N)c3)C(=O)[C@H]2C)CC1 [compound 228, 3-[(7R)-8-(cis-4-methoxycyclohexyl)-7-methyl-6-oxo-2-[(2-oxo-2,3-dihydro-1,3-benzoxazol-6-yl)amino]-7,8-dihydropteridin-5(6H)-yl]benzonitrile]"
12,≤ 100,"C[C@@H]1C(=O)N(c2cnc3ccccc3c2)c2cnc(Nc3ccc4[nH]ncc4c3)nc2N1C1CCCCC1 [Example 50, (7R)-8-cyclohexyl-2-(1H-indazol-5-ylamino)-7-methyl-5-(quinolin-3-yl)-7,8-dihydropteridin-6(5H)-one]"
